“And” between values parts separate entries of the source, which are not always exact repeats. Equal entries are not always repeated.
Assays:
[1] = test system: male C57BL/6 mice on high fat diet; assay: Fasting blood glucose levels after a single gavage in mice on a high fat diet; type: in vivo; details: 300 mg, Group 5, gavage
Method: The Aframomum melegueta-derived hypoglycemic extract product of Example 1 was tested in vivo for hypoglycemic activity.
(§1) Five week old male C57BL/6 mice (Jackson Laboratories, Bar Harbor, Me.) were placed on either low fat or high fat rodent diets (D12450B, 10% kcal, low fat or D12492, 60% kcal, high fat, Research Diets, New Brunswick, N.J.).
The mice were housed four to a cage under controlled temperature ([…]) and 12 hr light-dark cycles. Food (standard mouse chow, Purina) and water were available on an ad libitum basis for 7 days. The mice were then randomly divided into six groups (n=6) for the study. Five groups of mice were fed the high fat diet for 12 weeks (Groups 1-5), and the sixth group (Group 6) was fed the low fat diet for 12 weeks. Weekly food intake per cage and individual body weights were determined throughout the study.
After 12 weeks, all mice (Groups 1-6) were fasted for 4 hrs. After fasting, Group 1 mice provided a control and were gavaged with saline containing 5% DMSO; mice of Groups 2-4 were gavaged with different concentrations of the hypoglycemic extract product of Example 1 in 5% DMSO; and, Group 5 mice were gavaged with 300 mg/kg of Metformin in 5% DMSO as a positive control. Group 6 mice, which were fed a low fat diet, were gavaged with saline containing 5% DMSO and thus were also used as a control. Blood glucose levels were measured with a One Touch® Ultra® handheld glucometer (Lifescan, Milpitas, Calif.) using One Touch® Ultra® test strips. Mice were deprived of food during testing and the blood glucose levels of whole blood (obtained from a tail nick procedure) were determined at certain times (0, 3, and 5 hours after fasting commenced).
[…] with compositions comprising […]. The blood glucose levels were tested immediately after treatment (0 hours) and then 3 and 5 hours after treatment.

[2] = test system: high fat diet-induced diabetic model (male C57BL/6 mice); assay: Oral glucose tolerance test in high fat diet-induced diabetic model; type: in vivo; details: OGTT after 1 wk
Method: The Aframomum melegueta-derived hypoglycemic extract product of Example 1 was tested in vivo for hypoglycemic activity using a high fat diet-induced diabetic model.
as §1
The mice were housed individually under controlled temperature (70° F.) and 12 hr light-dark cycles. Food (standard mouse chow, Purina) and water were available on an ad libitum basis for 7 days. The mice were then randomly divided into control Groups 1 and 6 (n=8-10), treatment Groups 2 and 3 (n=6), and two positive control Groups 4 and 5 (n=6) for the study. The control mice continued to receive either a high fat diet or a low fat diet, and the treatment groups were fed the high fat diet for a 14 week period. Two groups of mice were gavaged with PMI006 at a dose of 500 mg/kg daily. As a positive control, Metformin was administered at a dose of 300 mg/kg in two groups of positive control mice.
An oral glucose tolerance test was performed after seven days of treatment. On the test day, animals were fasted for seven hours and glucose (2.0 g/kg) was then orally administered to them. […]
Mice were deprived of food during testing and the blood glucose levels of whole blood (obtained from a tail nick procedure) were determined at certain times. The Aframomum melegueta-derived hypoglycemic extract product of Example 1 was orally administered at a dosage of 500 mg/kg to the two treatment Groups 2 and 3 either 1.5 or 3.0 hours before the glucose challenge. Metformin was orally administered at a dosage of 300 mg/kg to the animals in the positive control Groups 4 and 5 either 1.5 or 3.0 hours before the glucose challenge.

## CN(C)C(=N)N=C(N)N [Metformin]
[1]; Time - 0 hours
  Avg. glucose: 218.5 mg/dL
  glucose (mg/dl), individual animals: 252 mg/dL and 188 mg/dL and 194 mg/dL and 184 mg/dL and 274 mg/dL and 219 mg/dL
[1]; Time - 3 hours
  Avg. glucose: 149.7 mg/dL
  glucose (mg/dl), individual animals: 66 mg/dL and 148 mg/dL and 161 mg/dL and 147 mg/dL and 157 mg/dL and 219 mg/dL
[1]; Time - 5 hours
  Average value: 128.2 mg/dL
  glucose (mg/dl), individual animals: 145 mg/dL and 96 mg/dL and 119 mg/dL and 124 mg/dL and 162 mg/dL and 123 mg/dL
[2]; 300 mg/kg oral 1.5 hr before glucose challenge, Group 4, 0 min
  Plasma glucose: 160 ± 4.9 mg/dL
[2]; 300 mg/kg oral 1.5 hr before glucose challenge, Group 4, 30 min
  Plasma glucose: 235 ± 12.2 mg/dL
[2]; 300 mg/kg oral 1.5 hr before glucose challenge, Group 4, 60 min
  Plasma glucose: 190 ± 11.1 mg/dL
[2]; 300 mg/kg oral 1.5 hr before glucose challenge, Group 4, 90 min
  Plasma glucose: 164 ± 6.0 mg/dL
[2]; 300 mg/kg oral 3 hr before glucose challenge, Group 5, 0 min
  Plasma glucose: 173 ± 13.2 mg/dL
[2]; 300 mg/kg oral 3 hr before glucose challenge, Group 5, 30 min
  Plasma glucose: 207 ± 26.7 mg/dL
[2]; 300 mg/kg oral 3 hr before glucose challenge, Group 5, 60 min
  Plasma glucose: 171 ± 14.8 mg/dL
[2]; 300 mg/kg oral 3 hr before glucose challenge, Group 5, 90 min
  Plasma glucose: 158 ± 6.7 mg/dL

Source: US7875300B2, “Methods for reducing circulating glucose levels” (Rutgers, The State University of New Jersey, priority 2006, dated 2011)
